Series [1] in a line: Mouse in vivo pharmacokinetic studies. Also on record: species or system C57BL/6 male mice. Here is the method:
Adult C57BL/6 male mice (2–4 mo old, body weight ranging from 20 to 25 g, Charles River Laboratories) were maintained under controlled temperature (23 ± 1°C) and lighting (lights on 6:00 AM–6:00 PM) with food and water provided ad libitum. Pharmacokinetic studies were performed either via intravenous bolus infusion or through oral gavage. Mice were administered each compound intravenously by tail vein injection (1 mg/kg) or orally through gavage (5 mg/kg). Serial blood samples were collected at 5, 15, and 30 min and 1, 2, 4, 8, and 24 h after intravenous administration, and at 15, 30 min, and 1, 2, 4, 8, and 24 h after oral gavage administration. All blood samples were centrifuged at 1,500 g for 5 min. Pharmacokinetic study procedures were approved by Temple University’s Institutional Animal Care and Usage Committee and were in accordance with National Institutes of Health (NIH) guidelines. For all in vivo efficacy studies, experiments were approved by the animal ethics committee of McMaster University and conducted under Canadian guidelines for animal research.
Plasma concentrations were determined using an LC-MS/MS method. Briefly, 100-µL acetonitrile with an internal standard solution (Diltiazem, 0.1 μg/mL) was added to 50-µL plasma or tissue homogenate. After being vortexed for 1 min, the mixture was centrifuged at 3,000 g for 5 min. LC-MS/MS analysis was carried out using a high-performance liquid chromatography system consisting of an Agilent 1100 system interfaced to an API4000 SCIEX triple-quadrupole tandem mass spectrometer (Applied Biosystems/MDS Sciex, Foster City, CA). MC-170073, MC-230078, MC-230079, and the internal standard were separated by using a Phenomenex (Torrance, CA) C18 column (2.0 × 50 mm). The mobile phase consisted of solvent A (0.1% formic acid in water) and solvent B (0.1% formic acid in acetonitrile). A linear gradient of solvent B from 5 to 95% was used. The detection and quantification of analytes were performed with the m/z transition 347/191 for MC-170073, MC-230078, and MC-230079, and m/z 415/178 for diltiazem.

A further series relates to DSS-induced colitis. Also on record: method as in PMID 23554310. As to conditions: acute DSS-induced colitis, vs controls; cited from earlier work.
The test system of series [2] is 2,4,6-trinitrobenzenesulfonic acid (TNBS)-induced colitis. Details: method as in PMID 23554310, PMID 27047383. As to conditions: cited from earlier work.
The subject of series [3] is naive CD4+ T cells expressing 5-HT7 receptors. Also on record: method as in PMID 17158224. As to conditions: ex vivo; cited from earlier work.
In series [4] the test system is DSS exposure at 4% wt/vol. Details: method as in PMID 25072499. As to conditions: DSS 4% wt/vol; untreated animals 33%; cited from earlier work.
For series [5], the system named is colitis induced by DSS and TNBS. The conditions noted are these: 5-HT4 receptor agonist; cited from earlier work.
[6] abbreviates: male, C57BL/6, plasma, IV, 1 mg/kg.
[7] abbreviates: male, C57BL/6, plasma, oral gavage, 5 mg/kg.

The bioavailability is dose-corrected exposure relative to a reference, in per cent. What is called AUC is concentration integrated over time. Higher therefore signals more exposure. The term Cmax denotes the peak of the concentration-time curve. A word on the Tmax: it is the time at which the peak concentration occurs. One may read the clearance as the rate of elimination divided by the concentration. Higher therefore signals efficient removal. Usually half-life stands for how long it takes for the measured level to halve. Read a high half-life as slow decline. For `CCC1(CC)C[C@H](CCN2CCN(c3ccc(O)cc3)CC2)OC1=O` [MC-230079], in series [1] (male, C57BL/6, mouse, plasma, oral, 5 mg/kg, 5 mg/kg oral vs 1 mg/kg IV, read-out: %F (oral bioavailability)), the bioavailability turned out to be 10.8%. Further, in series [1] (setting [6]), the exposure (AUC) was found to be 0.097 µg·h/mL, the highest level (Cmax) was 0.148 µg/mL, the Tmax came to 10 min and the clearance was 4.2 mL/min. Further, the half-life in series [1] (setting [6]) was 20.1 min. In series [1] (setting [7]), the exposure (AUC) came out at 0.0525 µg·h/mL, the Cmax came to 0.057 µg/mL, the Tmax is 30 min and the half-life is 34.9 min. The compound further returned a CL in series [1] (oral gavage, 5 mg/kg) of 2.07 L/h.

In the case of `CC1CCN(CC[C@H]2CCCN2S(=O)(=O)c2cccc(O)c2)CC1` [SB-269970, (R)-3-(2-(2-(4-methylpiperidin-1-yl)-ethyl)pyrrolidine-1-sulfonyl)phenol], the “severity of colitis and production of proinflammatory cytokines” value in the series on DSS-induced colitis is “significantly reduced”. The “effect on TNBS-induced colitis” value in series [2] is “only a minor impact”. The “rapid T cell responses upon 5-HT exposure” value in series [3] is “abrogated”. In addition, in series [4], the mortality rate is reported as more than 60%.

As for `[H]/N=C(/NCCCCC)N/N=C/c1c[nH]c2ccc(OC)cc12` [tegaserod], the “effect on development of colitis” value in series [5] is given as “protective actions”.

The values above are taken from paper PMC11550998, “Novel 5-HT7 receptor antagonists modulate intestinal immune responses and reduce severity of colitis” (American Journal of Physiology - Gastrointestinal and Liver …, 2024).
